Measurements as given in PMC8468504, “Marine Transcriptomics Analysis for the Identification of New Antimicrobial Peptides” (Marine Drugs, 2021).
Ends that are not written are not given here.

Columns and labels:
Type in all cases: cell-based
Aeromonas salmonicida = settings: 16 h
Method: (§1) The antibacterial activity of peptides β-Pte20, β-Pte17, β-Pte13 and β-Pte10 from pteroicidin B and γ-Pte20, γ-Pte17, γ-Pte13 and γ-Pte10 from pteroicidin C was evaluated on several bacteria as presented in Table 3. All peptides were solubilized in sterilized water. The minimum inhibitory concentrations (MICs) were determined according to the liquid growth inhibition test following the protocol established by Hetru and Bulet and used for the study of α-pteroicidins. Briefly, 10 μL of peptide solution were added to 100 μL of bacterial suspension at a starting OD600 of 0.001 (~10^5 to 10^6 CFU/mL according to strain) and incubated in 96-well microplates. Bacterial growth was assessed by optical density measurement at 595 nm after 16 h of incubation. All the tests were performed three times, and each peptide concentration between 0.1 and 50 µM was tested in triplicate. MICs were expressed in µM as an [a]–[b] concentration interval where [a] was the last concentration with bacterial growth and [b] was the first concentration with 100% bacterial growth inhibition. MBCs (minimal bactericidal concentrations) were expressed in µM as an [a]–[b] concentration interval where [a] was the last concentration with bacterial growth and [b] was the first concentration that killed 100% of the bacteria, determined after the plating on agar plates.

Escherichia coli = settings: 16 h
Method: as §1

Listeria monocytogenes = settings: 16 h
Method: as §1

Salmonella typhimurium = settings: 16 h; for MIC: murium
Method: as §1

Staphylococcus aureus = settings: 16 h
Method: as §1

Vibrio aestuarianus = settings: 16 h
Method: as §1

Vibrio splendidus = settings: 16 h
Method: as §1

Vibrio vulnificus = settings: 16 h
Method: as §1

Enterococcus faecalis = settings: 16 h
Method: as §1

human red blood cells = settings: 200 µM
Method: The hemolytic activity of peptides β-Pte20, β-Pte17, β-Pte13 and β-Pte10 from pteroicidin B and γ-Pte20, γ-Pte17, γ-Pte13 and γ-Pte10 from pteroicidin C was evaluated on human red blood cells (RBCs) following the protocol previously described in [96] and used for α-Pte in a previous study. RBCs were obtained from nine blood samples from French blood donors thanks to the support of the Etablissement Français du Sang (EFS). RBCs were rinsed twice in PBS and then diluted to obtain a 1% erythrocyte solution (~5 × 10^6 cells determined using a Scepter™ 2.0 cell counter). Ninety μL of erythrocyte solution were incubated with 90 μL of peptide solution at concentrations ranging from 5 to 200 μM, for one hour at 37 °C without shaking. The percentage of hemolysis was determined by optical density measurement at 415 nm. The experiment was performed in triplicate. The 0% hemolysis and 100% hemolysis controls were determined in PBS and 1% Triton X-100, respectively.

Sequence | MBC (Aeromonas salmonicida) | MIC (Aeromonas salmonicida) | MBC (Escherichia coli) | MIC (Escherichia coli) | MBC (Listeria monocytogenes) | MIC (Listeria monocytogenes) | MBC (Salmonella typhimurium) | MIC (Salmonella typhimurium) | MBC (Staphylococcus aureus) | MIC (Staphylococcus aureus) | MBC (Vibrio aestuarianus) | MIC (Vibrio aestuarianus) | MBC (Vibrio splendidus) | MIC (Vibrio splendidus) | MBC (Vibrio vulnificus) | MIC (Vibrio vulnificus) | MIC (Enterococcus faecalis) | hemolysis (human red blood cells)
FFKRLKNAFKSARQAWR [β-Pte17] | 5 to 10 µM | 5 to 10 µM | 1 to 5 µM | 1 to 5 µM | 25 to 50 µM | 5 to 10 µM | 10 to 25 µM | 10 to 25 µM | 25 to 50 µM | 10 to 25 µM | 10 to 25 µM | 10 to 25 µM | 10 to 25 µM | 10 to 25 µM | 10 to 25 µM | 10 to 25 µM | – | –
FFKRLKNAFKSARQAWRDYK [β-Pte20] | 1 to 5 µM | 1 to 5 µM | 5 to 10 µM | 1 to 5 µM | 5 to 10 µM | 1 to 5 µM | 10 to 25 µM | 10 to 25 µM | 10 to 25 µM | 1 to 5 µM | 5 to 10 µM | 1 to 5 µM | 5 to 10 µM | 1 to 5 µM | 5 to 10 µM | 5 to 10 µM | – | –
FFRHLKSLWK [γ-Pte10] | – | 25 to 50 µM | 25 to 50 µM | 25 to 50 µM | – | – | – | – | – | – | – | – | – | – | – | – | – | –
FFRHLKSLWKGAK [γ-Pte13] | – | 25 to 50 µM | 10 to 25 µM | 10 to 25 µM | – | – | – | – | – | – | – | – | – | – | – | – | – | –
FFRHLKSLWKGAKAAFR [γ-Pte17] | 1 to 5 µM | 1 to 5 µM | 10 to 25 µM | 1 to 5 µM | 5 to 10 µM | 1 to 5 µM | 5 to 10 µM | 5 to 10 µM | 1 to 5 µM | 1 to 5 µM | 5 to 10 µM | 5 to 10 µM | 10 to 25 µM | 10 to 25 µM | 10 to 25 µM | 10 to 25 µM | 1 to 5 µM | 43%
FFRHLKSLWKGAKAAFRGAR [γ-Pte20] | 1 to 5 µM | 1 to 5 µM | 1 to 5 µM | 1 to 5 µM | 5 to 10 µM | 1 to 5 µM | 5 to 10 µM | 5 to 10 µM | 1 to 5 µM | 1 to 5 µM | 10 to 25 µM | 5 to 10 µM | 5 to 10 µM | 5 to 10 µM | 10 to 25 µM | 10 to 25 µM | 1 to 5 µM | 19%
